Values quoted from earlier work in patent US20240299434A1, “URIDINE TRIACETATE AMORPHOUS FORMULATION” (PHARMA CINQ. LLC, priority 2021, published 2024).
Read-outs that look alike come from different tables or passages of the source.

Key:
[1] = humans
[2] = mice

SMILES: CC(=O)OC[C@H]1O[C@@H](n2ccc(=O)[nH]c2=O)[C@H](OC(C)=O)[C@@H]1OC(C)=O [Uridine triacetate, 2′,3′,5′-Tri-O-acetyluridine]
- solubility in water: approximately 10 milligrams per milliliter

SMILES: O=c1ccn([C@@H]2O[C@H](CO)[C@@H](O)[C@H]2O)c(=O)[nH]1 [uridine]
- oral bioavailability [1]: approximately 7%
- oral bioavailability [2]: approximately 7%
